{
  "source": "patent US10472341B2",
  "about": "“Bicyclic tetrahydrothiazepine derivatives useful for the treatment of neoplastic and/or infectious diseases” (APEIRON BIOLOGICS AG, priority 2015, dated 2019)",
  "key": {"[1]": {"system": "NK cells & K562 leukemia cells", "assay": "NK cells alone or in co-culture with K562 leukemia cells: IFN-gamma, TNF-alpha, granzyme, CD25+CD69+", "type": "cell-based, human", "method": "Isolated PBMCs, NK cells or CD8 positive cells were plated in Xvivo medium at 1.5*10^5 cells per in 96 well culture plates in the presence of 0.3*10^4 tumor cells where indicated. Cytokine secretion was determined by ELISA, immune cell activation (using Beckman-Coulter Abs CD25-PC5, CD69-PC7), cell viability and numbers by flow cytometry (Beckman-Coulter FC500 or Gallios) using 7-AAD exclusion as criterion for living cells. One of the physiological functions of NK cells in anti-tumor immunity is the recognition and destruction of tumor cells that have a low expression of MHC-molecules, thus avoiding recognition by CD8 T cells. Downregulation of MHC molecules is often actively mediated by an infecting virus or occurs during development of malignant neoplasms. The […] leukemia cell line expresses only very low amounts of MHC-molecules and thus is often used as a model system to investigate anti-tumor NK cell reactivity. NK cells were isolated from PBMCs and were incubated with and without compounds, either alone or in co-culture with K562 leukemia cells."}, "K562 leukemia cells": {"system": "K562 leukemia cells", "assay": "Living tumor cells (K562) in the presence of NK cells", "type": "cell-based, human", "method": "Isolated PBMCs, NK cells or CD8 positive cells were plated in Xvivo medium at 1.5*10^5 cells per in 96 well culture plates in the presence of 0.3*10^4 tumor cells where indicated. Cytokine secretion was determined by ELISA, immune cell activation (using Beckman-Coulter Abs CD25-PC5, CD69-PC7), cell viability and numbers by flow cytometry (Beckman-Coulter FC500 or Gallios) using 7-AAD exclusion as criterion for living cells. NK cells were isolated from PBMCs and were incubated with and without compounds, either alone or in co-culture with K562 leukemia cells."}},
  "data": [
    {"compound": "CC(C)NC(=O)c1cc2c(cc1F)S(=O)(=O)C[C@H](N)C(=O)N2Cc1ccc(Cl)cc1.Cl", "note": "[Example 77, (3R)-3-amino-5-[(4-chlorophenyl)methyl]-8-fluoro-1,1,4-trioxo-N-(propan-2-yl)-2,3,4,5-tetrahydro-1λ^6,5-benzothiazepine-7-carboxamide hydrochloride]", "values": [
      {"measurement": "IFN-gamma [ng/ml] Avg", "setting": "[1]; 0.03 μM, NK cells & K562", "value": 2.20, "unit": "ng/mL"},
      {"measurement": "TNF-alpha [ng/ml] avg", "setting": "[1]; 0.03 μM, NK cells & K562", "value": 0.08, "unit": "ng/mL"},
      {"measurement": "IFN-gamma [ng/ml] Avg", "setting": "[1]; 0.03 μM, NK cells only", "value": "below"},
      {"measurement": "TNF-alpha [ng/ml] avg", "setting": "[1]; 0.03 μM, NK cells only", "value": "below"},
      {"measurement": "IFN-gamma [ng/ml] Avg", "setting": "[1]; 0.1 μM, NK cells & K562", "value": 2.38, "unit": "ng/mL"},
      {"measurement": "TNF-alpha [ng/ml] avg", "setting": "[1]; 0.1 μM, NK cells & K562", "value": 0.11, "unit": "ng/mL"},
      {"measurement": "IFN-gamma [ng/ml] Avg", "setting": "[1]; 0.1 μM, NK cells only", "value": "below"},
      {"measurement": "TNF-alpha [ng/ml] avg", "setting": "[1]; 0.1 μM, NK cells only", "value": "below"},
      {"measurement": "IFN-gamma [ng/ml] Avg", "setting": "[1]; 0.3 μM, NK cells & K562", "value": 6.06, "unit": "ng/mL"},
      {"measurement": "TNF-alpha [ng/ml] avg", "setting": "[1]; 0.3 μM, NK cells & K562", "value": 0.19, "unit": "ng/mL"},
      {"measurement": "IFN-gamma [ng/ml] Avg", "setting": "[1]; 0.3 μM, NK cells only", "value": "below"},
      {"measurement": "TNF-alpha [ng/ml] avg", "setting": "[1]; 0.3 μM, NK cells only", "value": "below"},
      {"measurement": "IFN-gamma [ng/ml] Avg", "setting": "[1]; 1 μM, NK cells & K562", "value": 11.75, "unit": "ng/mL"},
      {"measurement": "TNF-alpha [ng/ml] avg", "setting": "[1]; 1 μM, NK cells & K562", "value": 0.34, "unit": "ng/mL"},
      {"measurement": "IFN-gamma [ng/ml] Avg", "setting": "[1]; 1 μM, NK cells only", "value": "below"},
      {"measurement": "TNF-alpha [ng/ml] avg", "setting": "[1]; 1 μM, NK cells only", "value": "below"},
      {"measurement": "IFN-gamma [ng/ml] Avg", "setting": "[1]; 3 μM, NK cells & K562", "value": 12.11, "unit": "ng/mL"},
      {"measurement": "TNF-alpha [ng/ml] avg", "setting": "[1]; 3 μM, NK cells & K562", "value": 0.47, "unit": "ng/mL"},
      {"measurement": "IFN-gamma [ng/ml] Avg", "setting": "[1]; 3 μM, NK cells only", "value": "below"},
      {"measurement": "TNF-alpha [ng/ml] avg", "setting": "[1]; 3 μM, NK cells only", "value": "below"},
      {"measurement": "IFN-gamma [ng/ml] Avg", "setting": "[1]; 10 μM, NK cells & K562", "value": 17.15, "unit": "ng/mL"},
      {"measurement": "TNF-alpha [ng/ml] avg", "setting": "[1]; 10 μM, NK cells & K562", "value": 0.57, "unit": "ng/mL"},
      {"measurement": "IFN-gamma [ng/ml] Avg", "setting": "[1]; 10 μM, NK cells only", "value": "below"},
      {"measurement": "TNF-alpha [ng/ml] avg", "setting": "[1]; 10 μM, NK cells only", "value": "below"},
      {"measurement": "IFN-gamma [ng/ml] Avg", "setting": "[1]; 30 μM, NK cells & K562", "value": 19.12, "unit": "ng/mL"},
      {"measurement": "TNF-alpha [ng/ml] avg", "setting": "[1]; 30 μM, NK cells & K562", "value": 0.70, "unit": "ng/mL"},
      {"measurement": "IFN-gamma [ng/ml] Avg", "setting": "[1]; 30 μM, NK cells only", "value": "below"},
      {"measurement": "TNF-alpha [ng/ml] avg", "setting": "[1]; 30 μM, NK cells only", "value": "below"},
      {"measurement": "CD25+CD69+", "setting": "[1]; NK cells & K562, 0.03 μM", "value": 1.77, "unit": "% gated"},
      {"measurement": "Granzyme", "setting": "[1]; NK cells & K562, 0.03 μM", "value": 0.48, "unit": "ng/mL"},
      {"measurement": "CD25+CD69+", "setting": "[1]; NK cells & K562, 0.1 μM", "value": 2.29, "unit": "% gated"},
      {"measurement": "Granzyme", "setting": "[1]; NK cells & K562, 0.1 μM", "value": 0.52, "unit": "ng/mL"},
      {"measurement": "CD25+CD69+", "setting": "[1]; NK cells & K562, 0.3 μM", "value": 4.44, "unit": "% gated"},
      {"measurement": "Granzyme", "setting": "[1]; NK cells & K562, 0.3 μM", "value": 0.68, "unit": "ng/mL"},
      {"measurement": "CD25+CD69+", "setting": "[1]; NK cells & K562, 1 μM", "value": 10.74, "unit": "% gated"},
      {"measurement": "Granzyme", "setting": "[1]; NK cells & K562, 1 μM", "value": 0.90, "unit": "ng/mL"},
      {"measurement": "CD25+CD69+", "setting": "[1]; NK cells & K562, 3 μM", "value": 13.55, "unit": "% gated"},
      {"measurement": "Granzyme", "setting": "[1]; NK cells & K562, 3 μM", "value": 1.15, "unit": "ng/mL"},
      {"measurement": "CD25+CD69+", "setting": "[1]; NK cells & K562, 10 μM", "value": 17.81, "unit": "% gated"},
      {"measurement": "Granzyme", "setting": "[1]; NK cells & K562, 10 μM", "value": 1.41, "unit": "ng/mL"},
      {"measurement": "CD25+CD69+", "setting": "[1]; NK cells & K562, 30 μM", "value": 25.06, "unit": "% gated"},
      {"measurement": "Granzyme", "setting": "[1]; NK cells & K562, 30 μM", "value": 2.12, "unit": "ng/mL"},
      {"measurement": "production of IFN-gamma and TNF-alpha", "setting": "[1]; NK cells in co-culture with K562 leukemia cells", "value": "enhanced production of both cytokines specifically upon tumor cell contact"},
      {"measurement": "enhancement of IFN-gamma and TNF-alpha production", "setting": "[1]; NK cells in the absence of tumor cells", "value": "such effect was not detected in the absence of tumor cells"},
      {"measurement": "CD25+CD69+", "setting": "[1]; NK cells only, 0.03 μM", "value": 0.01, "unit": "% gated"},
      {"measurement": "Granzyme", "setting": "[1]; NK cells only, 0.03 μM", "value": 0.08, "unit": "ng/mL"},
      {"measurement": "CD25+CD69+", "setting": "[1]; NK cells only, 0.1 μM", "value": 0.02, "unit": "% gated"},
      {"measurement": "Granzyme", "setting": "[1]; NK cells only, 0.1 μM", "value": 0.06, "unit": "ng/mL"},
      {"measurement": "CD25+CD69+", "setting": "[1]; NK cells only, 0.3 μM", "value": 0.05, "unit": "% gated"},
      {"measurement": "Granzyme", "setting": "[1]; NK cells only, 0.3 μM", "value": 0.08, "unit": "ng/mL"},
      {"measurement": "CD25+CD69+", "setting": "[1]; NK cells only, 1 μM", "value": 0.15, "unit": "% gated"},
      {"measurement": "Granzyme", "setting": "[1]; NK cells only, 1 μM", "value": 0.05, "unit": "ng/mL"},
      {"measurement": "CD25+CD69+", "setting": "[1]; NK cells only, 3 μM", "value": 0.24, "unit": "% gated"},
      {"measurement": "Granzyme", "setting": "[1]; NK cells only, 3 μM", "value": 0.05, "unit": "ng/mL"},
      {"measurement": "CD25+CD69+", "setting": "[1]; NK cells only, 10 μM", "value": 0.46, "unit": "% gated"},
      {"measurement": "Granzyme", "setting": "[1]; NK cells only, 10 μM", "value": 0.10, "unit": "ng/mL"},
      {"measurement": "CD25+CD69+", "setting": "[1]; NK cells only, 30 μM", "value": 0.95, "unit": "% gated"},
      {"measurement": "Granzyme", "setting": "[1]; NK cells only, 30 μM", "value": 0.16, "unit": "ng/mL"},
      {"measurement": "Living tumor cells", "setting": "K562 leukemia cells; K562 only, 0.3 μM", "value": 31786.33},
      {"measurement": "Living tumor cells", "setting": "K562 leukemia cells; K562 only, 3 μM", "value": 21495.00},
      {"measurement": "Living tumor cells", "setting": "K562 leukemia cells; K562 only, 30 μM", "value": 22503.00},
      {"measurement": "Living tumor cells", "setting": "K562 leukemia cells; NK cells & K562, 0.01 μM", "value": 696.00},
      {"measurement": "Living tumor cells", "setting": "K562 leukemia cells; NK cells & K562, 0.03 μM", "value": 636.00},
      {"measurement": "Living tumor cells", "setting": "K562 leukemia cells; NK cells & K562, 0.1 μM", "value": 567.00},
      {"measurement": "Living tumor cells", "setting": "K562 leukemia cells; NK cells & K562, 0.3 μM", "value": 589.00},
      {"measurement": "Living tumor cells", "setting": "K562 leukemia cells; NK cells & K562, 1 μM", "value": 520.33},
      {"measurement": "Living tumor cells", "setting": "K562 leukemia cells; NK cells & K562, 3 μM", "value": 406.33},
      {"measurement": "Living tumor cells", "setting": "K562 leukemia cells; NK cells & K562, 10 μM", "value": 398.33},
      {"measurement": "Living tumor cells", "setting": "K562 leukemia cells; NK cells & K562, 30 μM", "value": 408.33}
    ]}
  ]
}
